Assay: investigation of the substances having an antibacterial effect in bovine milk following parenteral administration of enrofloxacin
Assay type: in vivo

| Compound | proportion in the milk | antibacterial activity in bovine milk (enrichment of active compounds as compared with the serum concentration) |
| --- | --- | --- |
| O=C(O)c1cn(C2CC2)c2cc(N3CCNCC3)c(F)cc2c1=O [ciprofloxacin, 1-cyclopropyl-7-(1-piperazinyl)-6-fluoro-1,4-dihydro-4-oxo-3-quinolonecarboxylic acid] | ~90% |  |
| CCN1CCN(c2cc3c(cc2F)c(=O)c(C(=O)O)cn3C2CC2)CC1 [enrofloxacin, 1-cyclopropyl-7-(4-ethyl-1-piperazinyl)-6-fluoro-1,4-dihydro-4-oxo-3-quinolone-carboxylic acid] | ~10% | high antibacterial activity |
